According to ChEMBL document CHEMBL1128381, “Hypoxia-selective antitumor agents. 10. bis(nitroimidazoles) and related Bis(nitroheterocycles): development of derivatives with higher rates of metabolic activation under hypoxia and improved aqueous solubility” (J Med Chem, 1995):
Calls of active or inactive are those of the source. No cut-off for these calls is given here.

Key:
[1] = test system: EMT6; assay: Hypersensitivity (HF) factor in murine mammary carcinoma EMT6 cells [HF= ratio (IC50 in AA8 cells)/(IC50 in EMT6)]; assay type: functional, Mus musculus
[2] = test system: FME; assay: Hypersensitivity (HF) factor in human melanoma FME cells [HF= ratio (IC50 in AA8 cells)/(IC50 in FME cells)]; assay type: functional
[3] = test system: CHO-AA8; assay: Concentration x time (uM h) to reduce cell survival to 10% of control values under hypoxic conditions by clonogenic assay; assay type: ADME, cell-based, Cricetulus griseus; conditions: chinese hamster
[4] = Ratio between aerobic CT10 and hypoxic CT10; assay type: functional
[5] = test system: CHO-AA8; assay: Aerobic growth inhibition in Chinese hamster cell line AA8; assay type: functional, cell-based; conditions: Cricetulus griseus
[6] = test system: UV4; assay: Hypersensitivity (HF) factor in chinese hamster cell line UV4 [HF= ratio (IC50 in AA8 cells)/(IC50 in UV4 cells)]; assay type: functional, Cricetulus griseus
[7] = Ratio between aerobic CT10 and hypoxic CT10; No aerobic cytotoxicity at the solubility limit
[8] = test system: EMT6; assay: Evaluated for hypersensitivity (HF) factor in murine mammary carcinoma EMT6 cells as HF=IC50 for AA8/IC50 for the murine mammary carcinoma EMT6; f means inactive at the solubility limit; assay type: functional, cell-based; conditions: Mus musculus
[9] = test system: UV4; assay: Evaluated for hypersensitivity (HF) factor in chinese hamster cell line UV4; Evaluated as HF=IC50 for AA8/IC50 for the chinese hamster cell line UV4; f means inactive at solubility limit; assay type: functional, cell-based; conditions: Cricetulus griseus
[10] = test system: FME; assay: Evaluated for hypersensitivity (HF) factor in human melanoma FME cells as HF=IC50 for AA8/IC50 for the human melanoma FME; f means inactive at the solubility limit; assay type: functional, cell-based
[11] = test system: CHO-AA8; assay: Concentration x time (uM h) to reduce cell survival to 10% of control values under hypoxic conditions by clonogenic assay. Inactive at the solubility limit; assay type: ADME, cell-based, Cricetulus griseus; conditions: chinese hamster

Structure (SMILES)	HF [1]	HF [2]	CT10 [3] [µM·h]	selectivity ratio [4]	IC50 [5] [mM]	HF [6]	selectivity ratio [7]	HF [8]	HF [9]	HF [10]	CT10 [11] [µM·h]
Cc1ncc([N+](=O)[O-])n1CCN(C)C(=O)CCCn1ccnc1[N+](=O)[O-]	2.09	2.83	7200	> 18	4.8	1.05	–	–	–	–	–
O=[N+]([O-])c1nccn1CC(O)CNCCBr (stereo not drawn)	1.55	1	400	20	–	5.85	–	–	–	–	–
Cc1ncc([N+](=O)[O-])n1CC(O)Cn1ccnc1[N+](=O)[O-] (stereo not drawn)	–	>1.11	2400	–	> 0.8	>0.85	> 3	Inactive at solubility limit	–	–	–
CN(CCCn1ccnc1[N+](=O)[O-])CCCn1ccnc1[N+](=O)[O-]	2.6	2.55	700	40	0.81	0.97	–	–	–	–	–
C[N+](C)(CCCn1ccnc1[N+](=O)[O-])CCCn1ccnc1[N+](=O)[O-].[I-]	24.2	4.85	23000	10	3.65	0.89	–	–	–	–	–
Cc1ncc([N+](=O)[O-])n1CCNS(=O)(=O)CCCn1ccnc1[N+](=O)[O-]	>0.84	>0.91	–	–	> 40.3	–	–	–	Inactive at solubility limit	–	–
Cc1ncc([N+](=O)[O-])n1CC(O)Cn1cnc([N+](=O)[O-])n1 (stereo not drawn)	4.85	3.63	> 47000	–	2.3	1.16	–	–	–	–	–
Cc1ncc([N+](=O)[O-])n1CCNCCCCn1ccnc1[N+](=O)[O-]	2.12	1.27	2400	12	2	1.07	–	–	–	–	–
O=[N+]([O-])c1nccn1CC1OC(n2ccnc2[N+](=O)[O-])C(O)C(O)C1O (stereo not drawn)	<0.8	2.44	57000	–	7.4	0.89	> 1.5	–	–	–	–
O=C(NCCCn1ccnc1[N+](=O)[O-])C(=O)NCCCn1ccnc1[N+](=O)[O-]	–	–	–	–	> 0.08	–	–	Inactive at solubility limit	Inactive at solubility limit	Inactive at solubility limit	> 700
O=C(CCCn1cnc([N+](=O)[O-])n1)NCCCn1ccnc1[N+](=O)[O-]	8.38	5.94	17000	3.5	5.28	1.25	–	–	–	–	–
O=[N+]([O-])c1nccn1CC(O)CN1CCCCC1 (stereo not drawn) [PIMONIDAZOLE]	6.3	4.07	3500	40	3.03	1.37	–	–	–	–	–
COCC(O)Cn1ccnc1[N+](=O)[O-] (stereo not drawn) [MISONIDAZOLE]	3.6	1.94	16000	18	–	1.37	–	–	–	–	–
Cc1ncc([N+](=O)[O-])n1CCNC(=O)CCC(=O)NCCn1ccnc1[N+](=O)[O-]	7.09	3.49	47000	–	6.6	1	> 6	–	–	–	–
O=C(CCCn1ccnc1[N+](=O)[O-])NCCn1cnc([N+](=O)[O-])n1	10.7	6.9	17000	–	6.92	1.19	> 6	–	–	–	–
Cc1ncc([N+](=O)[O-])n1CCNCCCn1ccnc1[N+](=O)[O-]	4.73	3.61	2400	14	4.74	1.42	–	–	–	–	–
O=C(CCCn1cnc([N+](=O)[O-])n1)NCCn1ccnc1[N+](=O)[O-]	1.76	>1.9	15000	–	1.71	1.17	> 1	–	–	–	–
O=[N+]([O-])c1nccn1CCCNCCCn1ccnc1[N+](=O)[O-]	5.37	2.58	2300	40	1.18	0.9	–	–	–	–	–
Cc1ncc([N+](=O)[O-])n1CCNC(=O)CCCn1ccnc1[N+](=O)[O-]	4.64	3.51	12000	8	–	1.38	–	–	–	–	–
Cc1ncc([N+](=O)[O-])n1CCNC(=O)CCCn1cnc([N+](=O)[O-])n1	4.94	4.51	100000	> 1.3	6.42	1.2	–	–	–	–	–
Cc1ncc([N+](=O)[O-])n1CCNS(=O)(=O)CCCn1cnc([N+](=O)[O-])n1	<1.35	1.19	–	–	1.14	<1.35	–	–	–	–	–
Cc1ncc([N+](=O)[O-])n1CCN(C)CCCCn1ccnc1[N+](=O)[O-]	1.44	1.54	2000	8	1	0.98	–	–	–	–	–
